Data: PubChem BioAssay AID248 (DTP/NCI, 2004)
Inconclusive results and toxic doses are left out. Rule as the data show it: active = T/C of 150% or more; inactive = T/C below 125%.

Test system: L1210 leukemia ip in BDF1 mice, survival T/C
Test: NCI In Vivo Anticancer Drug Screen. Data for tumor model L1210 Leukemia (intraperitoneal) in B6D2F1 (BDF1) mice
Conditions: endpoint: mean survival time, higher = longer survival
Outline: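 Transplanted-tumor mice were given test agent; controls received vehicle only. Survival readings from the two groups were divided (treated over control).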

[1] = dose: 100.0 mg/kg/injection, schedule: Q04DX003 (ip), vehicle: Klucel (hydroxypropylcellulose) (HPC)
[2] = dose: 200.0 mg/kg/injection, schedule: Q04DX003 (ip), vehicle: Klucel (hydroxypropylcellulose) (HPC)
[3] = dose: 400.0 mg/kg/injection, schedule: Q04DX003 (ip), vehicle: Klucel (hydroxypropylcellulose) (HPC)
[4] = dose: 100.0 mg/kg/injection, schedule: Q01DX001 (ip), vehicle: saline
[5] = dose: 200.0 mg/kg/injection, schedule: Q01DX001 (ip), vehicle: saline
[6] = dose: 400.0 mg/kg/injection, schedule: Q01DX001 (ip), vehicle: saline
[7] = dose: 200.0 mg/kg/injection, schedule: Q01DX009 (ip), vehicle: saline with Tween-80
[8] = dose: 100.0 mg/kg/injection, schedule: Q01DX009 (ip), vehicle: saline with Tween-80

Measured: T/C

Cc1ccc(S(=O)(=O)OCC2C3CCC(C4CCC43)C2COS(=O)(=O)c2ccc(C)cc2)cc1 (stereo not given)
inactive: [1] 96 % of control | [2] 93 % of control | [3] 91 % of control

S=c1ccnc[nH]1
inactive: dose: 100.0 mg/kg/injection, schedule: Q01DX Z (ip), vehicle: methylcellulose (MC) 87 % of control | dose: 200.0 mg/kg/injection, schedule: Q01DX Z (ip), vehicle: methylcellulose (MC) 88 % of control

CC(C)=CCC(C)c1ccccn1 (stereo not given)
inactive: [4] 100 % of control | [5] 100 % of control | [6] 97 % of control

CSc1ncc(COP(=S)(OCc2cnc(SC)nc2N)OCc2cnc(SC)nc2N)c(N)n1
inactive: dose: 12.5 mg/kg/injection, schedule: Q04DX003 (ip), vehicle: saline 100 % of control | dose: 25.0 mg/kg/injection, schedule: Q04DX003 (ip), vehicle: saline 103 % of control | dose: 50.0 mg/kg/injection, schedule: Q04DX003 (ip), vehicle: saline 97 % of control

O=C(NC(CO)CCCO)c1ccc([N+](=O)[O-])cc1 (stereo not given)
inactive: [1] 108 % of control | [2] 86 % of control | [3] 96 % of control

CC1CN=C(c2ccc(NC(=O)c3ccc(C(=O)Nc4ccc(C5=NCC(C)CN5)cc4)cc3)cc2)NC1 (stereo not given)
inactive: dose: 0.12 mg/kg/injection, schedule: Q01DX015 (ip), vehicle: water 100 % of control | dose: 0.25 mg/kg/injection, schedule: Q01DX015 (ip), vehicle: water 102 % of control | dose: 0.5 mg/kg/injection, schedule: Q01DX015 (ip), vehicle: water 104 % of control | dose: 1.0 mg/kg/injection, schedule: Q01DX015 (ip), vehicle: water 104 % of control | dose: 2.0 mg/kg/injection, schedule: Q01DX015 (ip), vehicle: water 122 % of control | dose: 4.0 mg/kg/injection, schedule: Q01DX015 (ip), vehicle: water 114 % of control

O=C(NCc1ccccc1)c1ccccc1/C(=N/O)c1ccccc1
inactive: [7] 86 % of control

O=C(O)c1ccc[nH]c1=O
inactive: dose: 100.0 mg/kg/injection, schedule: Q01DX001 (ip), vehicle: saline with Tween-80 97 % of control | dose: 200.0 mg/kg/injection, schedule: Q01DX001 (ip), vehicle: saline with Tween-80 95 % of control | dose: 400.0 mg/kg/injection, schedule: Q01DX001 (ip), vehicle: saline with Tween-80 98 % of control

O=C(/C=C/c1ccccc1)Nc1ccc(Cl)cc1C(=O)c1ccccc1
inactive: dose: 100.0 mg/kg/injection, schedule: Q01DX009 (ip), vehicle: Klucel (hydroxypropylcellulose) (HPC) 102 % of control | dose: 200.0 mg/kg/injection, schedule: Q01DX009 (ip), vehicle: Klucel (hydroxypropylcellulose) (HPC) 97 % of control | dose: 400.0 mg/kg/injection, schedule: Q01DX009 (ip), vehicle: Klucel (hydroxypropylcellulose) (HPC) 94 % of control

S=P(CP(c1ccccc1)c1ccccc1)(c1ccccc1)c1ccccc1
inactive: dose: 100.0 mg/kg/injection, schedule: Q04DX002 (sc), vehicle: olive oil, sesame oil, peanut oil 100 % of control | dose: 200.0 mg/kg/injection, schedule: Q04DX002 (sc), vehicle: olive oil, sesame oil, peanut oil 107 % of control | dose: 400.0 mg/kg/injection, schedule: Q04DX002 (sc), vehicle: olive oil, sesame oil, peanut oil 104 % of control

CC(=O)Oc1cc(Cl)c(Cl)cc1Cl
inactive: dose: 100.0 mg/kg/injection, schedule: Q01DX009 (ip), vehicle: saline 100 % of control | dose: 100.0 mg/kg/injection, schedule: Q04DX002 (ip), vehicle: gum acacia 102 % of control | dose: 200.0 mg/kg/injection, schedule: Q01DX009 (ip), vehicle: saline 100 % of control | dose: 200.0 mg/kg/injection, schedule: Q04DX002 (ip), vehicle: gum acacia 110 % of control | dose: 400.0 mg/kg/injection, schedule: Q01DX009 (ip), vehicle: saline 102 % of control | dose: 400.0 mg/kg/injection, schedule: Q04DX002 (ip), vehicle: gum acacia 94 % of control

Cc1scc[n+]1Cc1ccccc1[N+](=O)[O-]
inactive: dose: 5.0 mg/kg/injection, schedule: Q01DX001 (ip), vehicle: saline 109 % of control | dose: 10.0 mg/kg/injection, schedule: Q01DX001 (ip), vehicle: saline 109 % of control | dose: 20.0 mg/kg/injection, schedule: Q01DX001 (ip), vehicle: saline 105 % of control | dose: 40.0 mg/kg/injection, schedule: Q01DX001 (ip), vehicle: saline 109 % of control | dose: 80.0 mg/kg/injection, schedule: Q01DX001 (ip), vehicle: saline 100 % of control

Cc1coc(NS(=O)(=O)c2ccc(N=Nc3c(N)[nH]c(=S)[nH]c3=O)cc2)c1C
inactive: [4] 113 % of control | [5] 107 % of control | [6] 101 % of control

CN(C)Cc1cc(Cl)cc(Cc2cc(Cl)cc(CN(C)C)c2O)c1O
inactive: [4] 100 % of control | dose: 100.0 mg/kg/injection, schedule: Q04DX003 (ip), vehicle: saline 93 % of control | [5] 94 % of control | dose: 200.0 mg/kg/injection, schedule: Q04DX003 (ip), vehicle: saline 88 % of control | [6] 96 % of control | dose: 400.0 mg/kg/injection, schedule: Q04DX003 (ip), vehicle: saline 95 % of control

CC(=O)Oc1ccccc1C1SCSCS1
inactive: dose: 100.0 mg/kg/injection, schedule: Q01DX001 (ip), vehicle: Klucel (hydroxypropylcellulose) (HPC) 100 % of control | dose: 200.0 mg/kg/injection, schedule: Q01DX001 (ip), vehicle: Klucel (hydroxypropylcellulose) (HPC) 100 % of control | dose: 400.0 mg/kg/injection, schedule: Q01DX001 (ip), vehicle: Klucel (hydroxypropylcellulose) (HPC) 94 % of control

c1ccc(-c2nnc(N3CCCCC3)nc2-c2ccccc2)cc1
inactive: dose: 50.0 mg/kg/injection, schedule: Q01DX001 (ip), vehicle: saline 100 % of control | [4] 88 % of control | [5] 94 % of control

CCCCOC(=N)Cc1cc(OC)c(OC)c(OC)c1
inactive: dose: 75.0 mg/kg/injection, schedule: Q04DX003 (ip), vehicle: saline with Tween-80 98 % of control | dose: 150.0 mg/kg/injection, schedule: Q04DX003 (ip), vehicle: saline with Tween-80 92 % of control | dose: 300.0 mg/kg/injection, schedule: Q04DX003 (ip), vehicle: saline with Tween-80 98 % of control

CC(=O)OCCCCOC(C)=O
inactive: [4] 105 % of control | [5] 109 % of control | [6] 107 % of control

O=C(NCCCOc1ccc([N+](=O)[O-])cc1)OCc1ccccc1
inactive: [1] 109 % of control | [2] 107 % of control

OC1(C2CCC(C(F)(F)F)CC2)C2C=CC1CC2 (stereo not given)
inactive: dose: 75.0 mg/kg/injection, schedule: Q04DX002 (ip), vehicle: Klucel (hydroxypropylcellulose) (HPC) 93 % of control | dose: 150.0 mg/kg/injection, schedule: Q04DX002 (ip), vehicle: Klucel (hydroxypropylcellulose) (HPC) 93 % of control | dose: 300.0 mg/kg/injection, schedule: Q04DX002 (ip), vehicle: Klucel (hydroxypropylcellulose) (HPC) 100 % of control

C=CCOC(=O)C(=O)OCC=C
inactive: [8] 95 % of control

OCC(Cc1ccc(Cl)cc1)N1CCCCC1 (stereo not given)
inactive: dose: 100.0 mg/kg/injection, schedule: Q01DX001 (ip), vehicle: carboxymethylcellulose (CMC) 96 % of control | dose: 200.0 mg/kg/injection, schedule: Q01DX001 (ip), vehicle: carboxymethylcellulose (CMC) 100 % of control | dose: 400.0 mg/kg/injection, schedule: Q01DX001 (ip), vehicle: carboxymethylcellulose (CMC) 89 % of control

O=C(N/N=C\c1ccc([N+](=O)[O-])cc1)c1ccncc1
inactive: [8] 94 % of control | [7] 94 % of control | dose: 400.0 mg/kg/injection, schedule: Q01DX009 (ip), vehicle: saline with Tween-80 98 % of control

O=C(O)C(c1ccccc1)C1CCCC1 (stereo not given)
inactive: dose: 50.0 mg/kg/injection, schedule: Q01DX009 (ip), vehicle: saline with Tween-80 102 % of control | [8] 105 % of control | [1] 98 % of control | [7] 100 % of control | [2] 100 % of control | [3] 98 % of control
